Results from PubChem BioAssay (NCI).
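Growth conditions: 96-well plates. Treatment: test compound, 48 hours, 5 concentrations. Analysis: linear interpolation between bracketing concentrations; unreached endpoints set to highest concentration. TGI denotes the concentration required for complete inhibition of growth.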

Columns and labels:
Assay in all cases: inhibition of tumour cell growth, NCI panel, 48 h
[1] = test system: NCI/ADR-RES ovarian
[2] = test system: SK-OV-3 ovarian
[3] = test system: T-47D breast
[4] = test system: M14 melanoma
[5] = test system: MCF7 breast
[6] = test system: A498 renal
[7] = test system: SF-539 CNS
[8] = test system: HT29 colon
[9] = test system: IGROV1 ovarian
[10] = test system: U251 CNS
[11] = test system: SW-620 colon
[12] = test system: SK-MEL-28 melanoma
[13] = test system: CCRF-CEM leukemia
[14] = test system: RXF 393 renal
[15] = test system: COLO 205 colon
[16] = test system: NCI-H460 lung
[17] = test system: SNB-19 CNS
[18] = test system: KM12 colon
[19] = test system: OVCAR-8 ovarian

Row | Structure (SMILES) | TGI [1] | TGI [2] | TGI [3] | TGI [4] | TGI [5] | TGI [6] | TGI [7] | TGI [8] | TGI [9] | TGI [10] | TGI [11] | TGI [12] | TGI [13] | TGI [14] | TGI [15] | TGI [16] | TGI [17] | TGI [18] | TGI [19]
1 | Cc1ccc2c(c1)CC1(Cc3ccccc3C1=O)C2=O (stereo not given) | > 100 µM | > 100 µM | > 100 µM | > 100 µM | > 100 µM | > 100 µM | > 100 µM | > 100 µM | > 100 µM | > 100 µM | > 100 µM | > 100 µM | > 100 µM | > 100 µM | > 100 µM | > 100 µM | > 100 µM | > 100 µM | > 100 µM
2 | COC1=C(OC)C(=O)C(Cc2c(C)nc3sccn23)=C(C)C1=O | 31.1 µM | 26.8 µM | > 100 µM | 36.6 µM | > 100 µM | 38.3 µM | 31.2 µM | 32.2 µM | 40.9 µM | 33.1 µM | 34.8 µM | 23.3 µM | 23.8 µM | 51.7 µM | 26.8 µM | 61.5 µM | 33.3 µM | 33.9 µM | 33.6 µM
3 | CN(C)CCCN=c1c2ccccc2n(O)c2ccccc12 | > 100 µM | > 100 µM | > 100 µM | > 100 µM | > 100 µM | > 100 µM | > 100 µM | 28.8 µM | > 100 µM | > 100 µM | > 100 µM | > 100 µM | > 100 µM | > 100 µM | 26.9 µM | > 100 µM | – | > 100 µM | > 100 µM
4 | CSc1cc(Cl)c(C)cc1S(=O)(=O)NC(=O)NNc1cccc(C(F)(F)F)n1 | > 100 µM | > 100 µM | > 100 µM | > 100 µM | > 100 µM | > 100 µM | > 100 µM | > 100 µM | > 100 µM | > 100 µM | > 100 µM | > 100 µM | > 100 µM | > 100 µM | > 100 µM | > 100 µM | > 100 µM | > 100 µM | > 100 µM
5 | CCO/C=N\C1=C(C#N)SC2=N/C(=C\c3ccc(OC)cc3)C(=O)N21 | > 100 µM | > 100 µM | > 100 µM | > 100 µM | > 100 µM | > 100 µM | > 100 µM | > 100 µM | > 100 µM | > 100 µM | > 100 µM | > 100 µM | > 100 µM | > 100 µM | > 100 µM | – | > 100 µM | > 100 µM | > 100 µM
6 | Cc1ccc2c3c1O[C@H]1c4[nH]c5ccccc5c4C[C@@]4(O)[C@@H](C2)N(CC2CC2)CC[C@]314 | 42.2 µM | 31.5 µM | 36.6 µM | 32.4 µM | 31.5 µM | 31.8 µM | 31.6 µM | 18.7 µM | 32 µM | 28.2 µM | 25.4 µM | 36.4 µM | 24.6 µM | 20.8 µM | 30.8 µM | 30.5 µM | 32.2 µM | 32.5 µM | 34.3 µM
7 | C=CCCC1(CC(Sc2ccccc2)P(=O)(c2ccccc2)c2ccccc2)OCCO1 (stereo not given) | > 10 µM | > 10 µM | > 10 µM | > 10 µM | > 10 µM | > 10 µM | > 10 µM | > 10 µM | > 10 µM | > 10 µM | > 10 µM | > 10 µM | > 10 µM | > 10 µM | > 10 µM | > 10 µM | > 10 µM | > 10 µM | > 10 µM
8 | Cc1ccc([N+](=O)[O-])c2c(NCCC[N+](C)(C)[O-])c3ccccc3nc12 | > 100 µM | > 100 µM | 7 µM | 7.42 µM | 7.66 µM | 4.84 µM | 9.76 µM | 5.26 µM | > 23.9 µM | 7.32 µM | > 72.6 µM | 17 µM | > 30.8 µM | 3.02 µM | 2.56 µM | 5.14 µM | 6.56 µM | > 21.1 µM | 49.1 µM
9 | COC(=O)C1=CS/C(=C2\S[C@@H]3[C@H](S2)[C@H]2C=C[C@@H]3C2)S1 | 47.8 µM | > 100 µM | > 100 µM | > 100 µM | > 100 µM | > 100 µM | 32.5 µM | 92.6 µM | > 100 µM | > 100 µM | > 100 µM | > 100 µM | > 100 µM | > 100 µM | > 100 µM | > 100 µM | > 100 µM | > 100 µM | > 100 µM
10 | O=C(Nc1nnc(-c2ccc(Cl)cc2)o1)C(SC(=S)N1CCOCC1)c1ccccc1 (stereo not given) | 90.7 µM | > 100 µM | > 100 µM | > 100 µM | > 100 µM | 56.5 µM | 34.1 µM | 78.3 µM | > 100 µM | 77.2 µM | > 100 µM | > 100 µM | > 100 µM | > 100 µM | 28.8 µM | 53.3 µM | > 100 µM | > 100 µM | > 100 µM
11 | CC(CC[C@@]1(C)C(=O)CCC2O[C@]21C)[C@H]1C[C@@H](c2ccoc2)OC1=O (stereo not given in full) | > 100 µM | > 100 µM | > 100 µM | > 100 µM | > 100 µM | > 100 µM | 69.1 µM | > 100 µM | > 100 µM | > 100 µM | 91.8 µM | 70.8 µM | 61.3 µM | 39.8 µM | 52.1 µM | > 100 µM | > 100 µM | > 100 µM | –
12 | CCOC(=O)c1c(N2CCOCC2)[nH]c(=O)c(C(c2c(Cl)cccc2Cl)c2c(O)c(C(=O)OCC)c(N3CCOCC3)[nH]c2=O)c1O | 33.8 µM | 24.9 µM | 13.2 µM | 5.15 µM | 6.63 µM | 20.9 µM | 11 µM | 12.9 µM | 15 µM | 15.8 µM | 3.11 µM | 4.19 µM | 3.56 µM | 4.93 µM | 14.9 µM | 45.2 µM | 21.1 µM | 33.2 µM | 20.5 µM
